According to patent US8067015B2, “Methods and compositions for the treatment and prevention of Staphylococcus and other bacterial infections” (priority 1997, dated 2011):

How the values were obtained:
Assay type in all cases: in vivo
[1] = test system: S. epidermidis GISE strain; assay: Rat subcutaneous Dacron graft infection model, GISE strain; settings: rats; for Bacterial concentration, GISE: 2×10^7 bacteria, explanted day 7, mean ± SD
Description: (§1) Rats (Wistar adult males (300-350 g), n=15/experimental group) were anaesthetized, hair on their back shaved and the skin cleansed with 10% povidone-iodine solution. A subcutaneous pocket was made on the side of the median line by a 1.5 cm incision. Aseptically, 1 cm^2 sterile collagen-sealed Dacron graft (Albograft™, Sorin Biomedica Cardio, S.p.A., Saluggi VC, Italy) was implanted into the pocket. […] Pockets were closed by skin clips and 1 ml sterile saline solution with or without 2×10^7 bacteria was inoculated onto the graft surface using a tuberculin syringe to create a subcutaneous fluid-filled pocket. Some of the animals that had grafts soaked only with RIP or saline were injected intraperitoneally with antibiotics (cefazolin 30 mg/kg, imipenem 30 mg/kg, teicoplanin 10 mg/kg, levofloxacin 10 mg/kg). Grafts were explanted 7 days following implantation.
(§2) The explanted grafts were placed in sterile tubes, washed in sterile saline solution, placed in tubes containing 10 ml of phosphate-buffered saline solution and sonicated for 5 min to remove the adherent bacteria from the grafts. Quantitation of viable bacteria was performed by culturing serial 10-fold dilutions (0.1 ml) of the bacterial suspension on blood agar plates. All plates were incubated at 37° C. for 48 hr and evaluated for the presence of the strain. Bacteria were quantitated by counting the number of colony forming unites (CFU) per plate. To determine if bacteria were efficiently removed from the graft, washed and sonicated grafts were observed under a Nikon Eclipse E 600 optical microscope (Nikon Y-THS, Japan).
(§3) Quantitative culture results of the in vivo experiments were presented as mean+SD of the mean. Comparisons of the results were performed by the analysis of variance (ANOVA) on the log-transformed data. Statistical analysis was performed for in vitro adhesion assays using Student's t-Test by Microsoft Excel (Microsoft, Wash.). Significance was accepted when the P value was <0.05.
(§4) To test if RIP can prevent graft-associated infections, Dacron grafts were coated with or without RIP, and with or without various types of antibiotics (for local prophylaxis experiments). Coated grafts were implanted in rats, bacteria injected into the implants, implants removed after a week, and bacterial load determined. Alternatively, Dacron grafts were first coated with RIP, bacteria injected, and antibiotics were administered by the intraperitoneal route (for parenteral prophylaxis experiments). As a negative control, grafts were implanted without local or parenteral RIP/antibiotics prophylaxis and no bacteria were injected. As a positive control, grafts were implanted, bacteria were injected, but no RIP/antibiotics prophylaxis was given.
(§5) Animals (15/group) received a Dacron-graft implanted in a subcutaneous pocket. Graft was subsequently infected with either S. epidermidis (tested on MSSE, MRSE and GISE) or with S. aureus (tested on MSSA, MRSA and GISA). […]

[2] = test system: S. epidermidis MSSE strain; assay: Rat subcutaneous Dacron graft infection model, MSSE strain; settings: rats; for Bacterial concentration, MSSE: 2×10^7 bacteria, explanted day 7, mean ± SD
Description: as §1, §2, §3, §4, §5

[3] = test system: S. epidermidis MRSE strain; assay: Rat subcutaneous Dacron graft infection model, MRSE strain; settings: rats; for Bacterial concentration, MRSE: 2×10^7 bacteria, explanted day 7, mean ± SD
Description: as §1, §2, §3, §4
Animals (15/group) received a Dacron-graft implanted in a subcutaneous pocket. Graft was subsequently infected with either S. epidermidis (tested on MSSE, MRSE and GISE) or with S. aureus (tested on MSSA, MRSA and GISA). The Dacron-graft prior to implantation was soaked in saline with or without 20 mg/l of RIP and some animals received […] of RIP i.p. as a prophylaxis treatment.

[4] = peptide-soaked/coated Dacron graft (RIP 10 mg/l), no antibiotic, day 7
[5] = A. Local prophylaxis: graft soaked 20 min in RIP 10 mg/l and/or antibiotic (mupirocin 100, quinupristin-dalfopristin 50, levofloxacin 30, rifampin 5 mg/l)
[6] = B. Parenteral prophylaxis: antibiotic intraperitoneally (cefazolin 30, imipenem 30, teicoplanin 10, levofloxacin 10 mg/kg), RIP as 10 mg/l graft soak

Molecule	Quantitative culture results of explanted graft, GISE strain [1, 4]	Quantitative culture results of explanted graft, MSSE strain [2, 4]	Quantitative culture results of explanted graft, MRSE strain [3, 4]	Bacterial concentration, GISE [1, 5]	Bacterial concentration, MSSE [2, 5]	Bacterial concentration, MRSE [3, 5]	Bacterial concentration, GISE [1, 6]	Bacterial concentration, MSSE [2, 6]	Bacterial concentration, MRSE [3, 6]
YKPETNF [inactive RIP peptide analogue]	6.52×10^6±3×10^6 CFU/ml	5.4×10^6±8×10^5 CFU/ml	7.08×10^6±2.1×10^6 CFU/ml	–	–	–	–	–	–
quinupristin-dalfopristin	–	–	–	0.0069 ± 0.0013 ×10^4 CFU/ml	0.0026 ± 0.0003 ×10^4 CFU/ml	0.0048 ± 0.001 ×10^4 CFU/ml	–	–	–
C[C@H]1COc2c(N3CCN(C)CC3)c(F)cc3c(=O)c(C(=O)O)cn1c23 [Levofloxacin, levofloxacin]	–	–	–	280 ± 40 ×10^4 CFU/ml	4.2 ± 2.1 ×10^4 CFU/ml	6.8 ± 2.5 ×10^4 CFU/ml	480 ± 170 ×10^4 CFU/ml	3.5 ± 1.1 ×10^4 CFU/ml	3.9 ± 1.4 ×10^4 CFU/ml
CO[C@H]1/C=C/O[C@@]2(C)Oc3c(C)c(O)c4c(O)c(c(/C=N/N5CCN(C)CC5)c(O)c4c3C2=O)NC(=O)/C(C)=C\C=C\[C@H](C)[C@H](O)[C@@H](C)[C@@H](O)[C@@H](C)[C@H](OC(C)=O)[C@@H]1C [Rifampicin, rifampin]	–	–	–	84 ± 27 ×10^4 CFU/ml	0.73 ± 0.2 ×10^4 CFU/ml	0.8 ± 0.37 ×10^4 CFU/ml	–	–	–
C/C(=C\C(=O)OCCCCCCCCC(=O)O)C[C@@H]1OC[C@H](C[C@@H]2O[C@H]2[C@@H](C)[C@H](C)O)[C@@H](O)[C@H]1O [Mupirocin, mupirocin]	–	–	–	0.07 ± 0.018 ×10^4 CFU/ml	0.064 ± 0.015 ×10^4 CFU/ml	0.035 ± 0.014 ×10^4 CFU/ml	–	–	–
C[C@@H](O)[C@H]1C(=O)N2C(C(=O)O)=C(SCCN=CN)C[C@H]12 [Imipenem, imipenem]	–	–	–	–	–	–	89 ± 36 ×10^4 CFU/ml	0.73 ± 0.2 ×10^4 CFU/ml	4 ± 1.8 ×10^4 CFU/ml
teicoplanin	–	–	–	–	–	–	57 ± 24 ×10^4 CFU/ml	0.0084 ± 0.0004 ×10^4 CFU/ml	0.072 ± 0.008 ×10^4 CFU/ml
Cc1nnc(SCC2=C(C(=O)O)N3C(=O)[C@@H](NC(=O)Cn4cnnn4)[C@H]3SC2)s1 [Cefazolin, cefazolin]	–	–	–	–	–	–	590 ± 200 ×10^4 CFU/ml	0.64 ± 0.19 ×10^4 CFU/ml	370 ± 120 ×10^4 CFU/ml
